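Tested at 5 concentrations; 48 h exposure; 96-well plates; endpoints linearly interpolated, else capped at highest concentration. The concentration for 50% growth inhibition is given as GI50.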 The source made the active and inactive calls. Rule as the data show it: active = GI50 up to about 1.1 µM and inactive = higher.
Tests used:
Assay in all cases: DTP human tumour cell line panel, 48 h
786-0 = system: 786-0
A498 = system: A498
A549 = system: A549
ACHN = system: ACHN
BT-549 = system: BT-549
CAKI-1 = system: CAKI-1
CCRF-CEM = system: CCRF-CEM
COLO 205 = system: COLO 205
DU-145 = system: DU-145
EKVX = system: EKVX
HCC 2998 = system: HCC 2998
HCT-116 = system: HCT-116
HCT-15 = system: HCT-15
HL-60 = system: HL-60
HOP-62 = system: HOP-62
HOP-92 = system: HOP-92
HT-29 = system: HT-29
Hs-578T = system: Hs-578T
IGROV-1 = system: IGROV-1
K562 = system: K562
KM12 = system: KM12
LOX IMVI = system: LOX IMVI
M14 = system: M14
MCF7 = system: MCF7
MDA-MB-231 = system: MDA-MB-231
MDA-MB-435 = system: MDA-MB-435
MDA-N = system: MDA-N
MOLT-4 = system: MOLT-4
NCI-H226 = system: NCI-H226
NCI-H23 = system: NCI-H23
NCI-H460 = system: NCI-H460
NCI-H522 = system: NCI-H522
NCI/ADR-RES = system: NCI/ADR-RES
OVCAR-3 = system: OVCAR-3
OVCAR-4 = system: OVCAR-4
OVCAR-5 = system: OVCAR-5
OVCAR-8 = system: OVCAR-8
PC-3 = system: PC-3
RXF 393 = system: RXF 393
SF-268 = system: SF-268
SF-295 = system: SF-295
SF-539 = system: SF-539
SK-MEL-28 = system: SK-MEL-28
SK-MEL-2 = system: SK-MEL-2
SK-MEL-5 = system: SK-MEL-5
SN12C = system: SN12C
SNB-19 = system: SNB-19
SNB-75 = system: SNB-75
SR = system: SR
SW-620 = system: SW-620
T47D = system: T47D
TK-10 = system: TK-10
U-251 = system: U-251
UACC-257 = system: UACC-257
UACC-62 = system: UACC-62
UO-31 = system: UO-31
Malme-3M = system: Malme-3M
RPMI-8226 = system: RPMI-8226
SK-OV-3 = system: SK-OV-3

Q: Which results are given for `CC(C)(C)c1ccc(-n2c3nc(=O)n(-c4ccccc4C(F)(F)F)c(=O)c-3cc3ccccc32)cc1`?
A: GI50 (786-0): 25.7 µM (inactive); GI50 (A498): 31.3 µM (inactive); GI50 (A549): 29 µM (inactive); GI50 (ACHN): 15.8 µM (inactive); GI50 (BT-549): 24 µM (inactive); GI50 (CAKI-1): 25.1 µM (inactive); GI50 (CCRF-CEM): 13.3 µM (inactive); GI50 (COLO 205): 19.1 µM (inactive); GI50 (DU-145): 28.1 µM (inactive); GI50 (EKVX): 18.6 µM (inactive); GI50 (HCC 2998): 14.2 µM (inactive); GI50 (HCT-116): 10.5 µM (inactive); GI50 (HCT-15): 12.3 µM; GI50 (HL-60): 9.77 µM (inactive); GI50 (HOP-62): 18.3 µM (inactive); GI50 (HOP-92): 18.1 µM (inactive); GI50 (HT-29): 8.32 µM (inactive); GI50 (Hs-578T): 21.9 µM (inactive); GI50 (IGROV-1): 29.1 µM (inactive); GI50 (K562): 16.9 µM (inactive); GI50 (KM12): 16.2 µM (inactive); GI50 (LOX IMVI): 11.9 µM (inactive); GI50 (M14): 14.4 µM (inactive); GI50 (MCF7): 15.6 µM (inactive); GI50 (MDA-MB-231): 23.8 µM (inactive); GI50 (MDA-MB-435): 15.6 µM (inactive); GI50 (MDA-N): 22.2 µM (inactive); GI50 (MOLT-4): 17.9 µM (inactive); GI50 (NCI-H226): 17 µM (inactive); GI50 (NCI-H23): 32.3 µM (inactive); GI50 (NCI-H460): 4.25 µM (inactive); GI50 (NCI-H522): 16.9 µM (inactive); GI50 (NCI/ADR-RES): 23.4 µM (inactive); GI50 (OVCAR-3): 13.6 µM (inactive); GI50 (OVCAR-4): 27.5 µM (inactive); GI50 (OVCAR-5): 20.2 µM (inactive); GI50 (OVCAR-8): 19.6 µM (inactive); GI50 (PC-3): 17 µM (inactive); GI50 (RXF 393): 24.2 µM (inactive); GI50 (SF-268): 30.5 µM (inactive); GI50 (SF-295): 19 µM (inactive); GI50 (SF-539): 23.8 µM (inactive); GI50 (SK-MEL-28): 8.26 µM (inactive); GI50 (SK-MEL-2): 14.6 µM (inactive); GI50 (SK-MEL-5): 15 µM (inactive); GI50 (SN12C): 20.2 µM (inactive); GI50 (SNB-19): 31.8 µM (inactive); GI50 (SNB-75): 15.6 µM (inactive); GI50 (SR): 19.3 µM (inactive); GI50 (SW-620): 25.8 µM (inactive); GI50 (T47D): 22.9 µM (inactive); GI50 (TK-10): 51.9 µM (inactive); GI50 (U-251): 11 µM (inactive); GI50 (UACC-257): 19.6 µM (inactive); GI50 (UACC-62): 14.9 µM (inactive); GI50 (UO-31): 20.7 µM (inactive)

Q: `Cc1ccc(-c2cc(-c3ccco3)c(C#N)c(=S)[nH]2)cc1` was tested. Which GI50 (786-0) did it give?
A: 77.3 µM (inactive)

Q: And the GI50 (A498)?
A: 36.3 µM (inactive)

Q: And the GI50 (A549)?
A: 43.9 µM (inactive)

Q: And the GI50 (ACHN)?
A: 35.6 µM (inactive)

Q: What about the GI50 (BT-549) of the same compound?
A: 42.8 µM (inactive)

Q: What about the GI50 (CAKI-1) of the same compound?
A: > 100 µM (inactive)

Q: And the GI50 (CCRF-CEM)?
A: 38.3 µM (inactive)

Q: And the GI50 (COLO 205)?
A: 97.3 µM (inactive)

Q: And the GI50 (DU-145)?
A: 93.5 µM (inactive)

Q: And the GI50 (EKVX)?
A: 90.6 µM (inactive)

Q: And the GI50 (HCC 2998)?
A: 67.5 µM (inactive)

Q: What about the GI50 (HCT-116) of the same compound?
A: 50.5 µM (inactive)

Q: What about the GI50 (HCT-15) of the same compound?
A: 42 µM

Q: What about the GI50 (HL-60) of the same compound?
A: 57 µM (inactive)

Q: And the GI50 (HOP-62)?
A: > 100 µM (inactive)

Q: And the GI50 (HOP-92)?
A: 99.5 µM (inactive)

Q: What about the GI50 (HT-29) of the same compound?
A: 92.3 µM (inactive)

Q: What about the GI50 (Hs-578T) of the same compound?
A: 38.5 µM (inactive)

Q: And the GI50 (IGROV-1)?
A: 25.7 µM (inactive)

Q: What about the GI50 (K562) of the same compound?
A: 41 µM (inactive)

Q: And the GI50 (KM12)?
A: 63.2 µM (inactive)

Q: And the GI50 (LOX IMVI)?
A: 34.8 µM (inactive)

Q: What about the GI50 (M14) of the same compound?
A: 63.8 µM (inactive)

Q: What about the GI50 (MCF7) of the same compound?
A: 16.2 µM (inactive)

Q: What about the GI50 (MDA-MB-231) of the same compound?
A: 43.2 µM (inactive)

Q: What about the GI50 (MDA-MB-435) of the same compound?
A: 23.9 µM (inactive)

Q: What about the GI50 (MDA-N) of the same compound?
A: > 10 µM (inactive)

Q: And the GI50 (MOLT-4)?
A: 32.2 µM (inactive)

Q: What about the GI50 (Malme-3M) of the same compound?
A: 24.2 µM (inactive)

Q: What about the GI50 (NCI-H226) of the same compound?
A: 31.5 µM (inactive)

Q: And the GI50 (NCI-H23)?
A: 29.9 µM (inactive)

Q: And the GI50 (NCI-H460)?
A: 46.2 µM (inactive)

Q: And the GI50 (NCI-H522)?
A: 44.2 µM (inactive)

Q: And the GI50 (NCI/ADR-RES)?
A: > 100 µM (inactive)

Q: What about the GI50 (OVCAR-3) of the same compound?
A: 61.7 µM (inactive)

Q: And the GI50 (OVCAR-4)?
A: 75.5 µM (inactive)

Q: What about the GI50 (OVCAR-5) of the same compound?
A: > 100 µM (inactive)

Q: And the GI50 (OVCAR-8)?
A: 68.1 µM (inactive)

Q: And the GI50 (PC-3)?
A: 28.3 µM (inactive)

Q: And the GI50 (RPMI-8226)?
A: 35.5 µM (inactive)

Q: And the GI50 (RXF 393)?
A: 55.8 µM (inactive)

Q: And the GI50 (SF-268)?
A: 40.6 µM (inactive)

Q: And the GI50 (SF-295)?
A: 38.7 µM (inactive)

Q: And the GI50 (SK-MEL-28)?
A: 20.8 µM (inactive)

Q: And the GI50 (SK-MEL-5)?
A: 22.8 µM (inactive)

Q: What about the GI50 (SK-OV-3) of the same compound?
A: 39.9 µM (inactive)

Q: What about the GI50 (SN12C) of the same compound?
A: 87.9 µM (inactive)

Q: And the GI50 (SNB-19)?
A: 32.1 µM (inactive)

Q: And the GI50 (SNB-75)?
A: 49.8 µM (inactive)

Q: What about the GI50 (SR) of the same compound?
A: 42.5 µM (inactive)

Q: What about the GI50 (SW-620) of the same compound?
A: 53.3 µM (inactive)

Q: And the GI50 (T47D)?
A: 20.4 µM (inactive)

Q: And the GI50 (TK-10)?
A: > 100 µM (inactive)

Q: And the GI50 (U-251)?
A: 21.4 µM (inactive)

Q: And the GI50 (UACC-62)?
A: 26.8 µM (inactive)

Q: What about the GI50 (UO-31) of the same compound?
A: 33.9 µM (inactive)

Q: Which results are given for `C=C(CN)CO[Si](C)(C)C(C)(C)C`?
A: GI50 (786-0): > 100 µM (inactive); GI50 (A498): > 100 µM (inactive); GI50 (A549): > 100 µM (inactive); GI50 (ACHN): > 100 µM (inactive); GI50 (BT-549): > 100 µM (inactive); GI50 (CAKI-1): > 100 µM (inactive); GI50 (CCRF-CEM): > 100 µM (inactive); GI50 (COLO 205): > 100 µM (inactive); GI50 (DU-145): > 100 µM (inactive); GI50 (EKVX): > 100 µM (inactive); GI50 (HCC 2998): > 100 µM (inactive); GI50 (HCT-116): > 100 µM (inactive); GI50 (HCT-15): > 100 µM; GI50 (HL-60): > 100 µM (inactive); GI50 (HOP-62): > 100 µM (inactive); GI50 (HT-29): > 100 µM (inactive); GI50 (Hs-578T): > 100 µM (inactive); GI50 (IGROV-1): > 100 µM (inactive); GI50 (K562): > 100 µM (inactive); GI50 (KM12): > 100 µM (inactive); GI50 (LOX IMVI): > 100 µM (inactive); GI50 (M14): > 100 µM (inactive); GI50 (MCF7): > 100 µM (inactive); GI50 (MDA-MB-231): > 100 µM (inactive); GI50 (MDA-MB-435): > 100 µM (inactive); GI50 (MDA-N): > 100 µM (inactive); GI50 (MOLT-4): > 100 µM (inactive); GI50 (Malme-3M): > 100 µM (inactive); GI50 (NCI-H226): > 100 µM (inactive); GI50 (NCI-H23): > 100 µM (inactive); GI50 (NCI-H460): > 100 µM (inactive); GI50 (NCI-H522): > 100 µM (inactive); GI50 (NCI/ADR-RES): > 100 µM (inactive); GI50 (OVCAR-3): > 100 µM (inactive); GI50 (OVCAR-5): > 100 µM (inactive); GI50 (OVCAR-8): > 100 µM (inactive); GI50 (PC-3): > 100 µM (inactive); GI50 (RPMI-8226): > 100 µM (inactive); GI50 (SF-268): > 100 µM (inactive); GI50 (SF-295): > 100 µM (inactive); GI50 (SF-539): > 100 µM (inactive); GI50 (SK-MEL-28): > 100 µM (inactive); GI50 (SK-MEL-2): > 100 µM (inactive); GI50 (SK-MEL-5): > 100 µM (inactive); GI50 (SK-OV-3): > 100 µM (inactive); GI50 (SN12C): > 100 µM (inactive); GI50 (SNB-19): > 100 µM (inactive); GI50 (SNB-75): 72.1 µM (inactive); GI50 (SR): > 100 µM (inactive); GI50 (SW-620): > 100 µM (inactive); GI50 (T47D): > 100 µM (inactive); GI50 (TK-10): 77.1 µM (inactive); GI50 (U-251): > 100 µM (inactive); GI50 (UACC-257): > 100 µM (inactive); GI50 (UACC-62): > 100 µM (inactive); GI50 (UO-31): > 100 µM (inactive)

Reference: ChEMBL document CHEMBL1201862, “PubChem BioAssay data set” (2004)
